For assay [1], the target named is T1, ALK2 (Mus musculus, UniProt P37172).
T1 construct: The C2C12 cell line was selected for the measurement of ALK2 activity using BMP6 as the agonist; host or cells: C2C12
T1 sequence (P37172 21-509): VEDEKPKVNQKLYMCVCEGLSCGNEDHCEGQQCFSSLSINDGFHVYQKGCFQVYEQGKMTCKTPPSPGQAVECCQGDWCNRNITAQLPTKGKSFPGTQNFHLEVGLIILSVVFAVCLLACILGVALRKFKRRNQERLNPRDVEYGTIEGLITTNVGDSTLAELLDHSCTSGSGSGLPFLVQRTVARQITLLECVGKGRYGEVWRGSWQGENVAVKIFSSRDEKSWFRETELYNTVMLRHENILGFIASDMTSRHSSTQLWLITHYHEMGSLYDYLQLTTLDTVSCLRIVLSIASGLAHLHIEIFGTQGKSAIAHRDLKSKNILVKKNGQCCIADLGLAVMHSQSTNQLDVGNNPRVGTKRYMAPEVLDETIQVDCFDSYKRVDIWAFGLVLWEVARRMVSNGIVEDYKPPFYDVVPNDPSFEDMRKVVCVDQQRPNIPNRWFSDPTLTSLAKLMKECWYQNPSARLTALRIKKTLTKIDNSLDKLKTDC
The assay can be described thus: HTRF pSMAD1 cell-based ALK2 assay (C2C12 cells, BMP6 as agonist). An outline of the steps: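 Phospho-SMAD1 HTRF readout, detection incubated overnight at room temperature. Before that: starved cells in 0.1% FBS for 4 h, 30 min compound pretreatment, then 30 min agonist, BMP6 on C2C12 or BMP9 on BAOEC.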
In general terms: TR-FRET usually uses a lanthanide donor and a delayed reading to cut background.

The target in assay [2] is T1, ALK2. The assay is described as follows: In-cell Western ALK2 assay (C2C12 cells, BMP6 as agonist). It counts as cell-based. Particulars: read-out: BMP6 ICW. An excerpt:
3. In-Cell Western ALK1 and ALK2 Assays in 384-Well Plate Format.
We also optimized cell-based In-cell Western assays for measurements of ALK1 and ALK2 activities that were used to determine compound activities in these two kinases. The cell lines and agonists used were same as described in above cell-based HTRF ALK1 and ALK2 assays. The initial cell plating and compound treatment were also same. The main difference is the detection of phosphorylation status of SMAD1. In t-cell Western assay, the cells were fixed and phosphorylation status of SMAD1 was detected by the ELISA instead of using the HTRF assay kit in above assay.
HyClone Fetal Bovine Serum was obtained from GE healthcare life sciences (Logan, Utah). BMP6 and BMP9 were purchased from R&D System (R&D). Anti-P-SMAD 1/5/8 rabbit mAb and anti-rabbit IgG, HRP-Linked antibody were purchased from Cell Signaling Technology (Danvers, Mass.). BioFX Chemiluminescent Ultra-Sensitive HRP Microwell Substrate ECL Reagent was obtained from SurModics (Edina, Minn.). The compound plates and the white solid MB assay plates were from Greiner Bio-one (Monroe, N.C.).
Similarly as described in above HTRF cell-based assay, this assay was performed in 384 well plate format. […] Pre-starved cells were then plated in 384 well plate in the starvation medium (containing in 0.1% FBS). After 4 hours, compound dilutions in DMSO were added to the assay plate and incubated for 30 minutes. The assay plate was then added with BMP6 for C2C12 cells or BMP9 for BAOEC cells and incubated for 30 minutes.
The cells were washed in the plate washer with PBS and blocked with 2% BSA in PBS for 1 h at room temperature on the rotator. After removing the blocking reagent, the cells were incubated with the anti-p-SMAD1 antibody in 2% BSA in PBS for overnight at 4° C. on rotator. The cells were washed with PBS in the plate washer and incubated with HRP conjugated second antibody in 2% BSA in PBS for 1 hour at room temperature. After a cell wash with PBS, ECL detection reagent was added and the plate was read in the luminesce mode in the ViewLux plate reader.

For another assay, the system named is BMP4. The assay can be described thus: BMP4 HTRF assay. In kind it is cell-based.
Assay [3] concerns the target T2, ALK2 (Homo sapiens, UniProt Q04771).
T2 sequence (Q04771 21-509): T1 sequence (P37172 21-509) with V1M, Q10P, I121L, E162D, S310P
The assay can be described thus: TR-FRET enzymatic ALK kinase assay, ALK2.
Description: Briefly, the ALKs enzymatic assay was initiated by dispense 2.5 μl enzyme in 1× kinase reaction buffer. The assay plate was then added with compounds followed by incubation at room temperature for 10 minutes. Then 2.5 μl/well substrate was added.

Structures are written as SMILES. Where a chain is given by its changes, count along the chain named. Values joined by “and” are separate entries in the source; they are usually repeats but may differ in a detail not shown here. Equal entries are not always repeated.

Take `CC[S+](=O)([O-])c1cccc(-c2cnn3cc(-c4ccc(N5[C@H](C)CNC[C@@H]5C)cc4)cnc23)c1` [Compound 104, 6-(4-((2R,6S)-2,6-dimethylpiperazin-1-yl)phenyl)-3-(3-(ethylsulfonyl)phenyl)pyrazolo[1,5-a]pyrimidine]: the IC50 is 170 nM at ALK2 [1] (HTRF assay, BMP6 as agonist, C2C12 cells, read-out: BMP6 HTRF); 1.3 nM at ALK2 [1] (cell-based assay, BMP6, read-out: Cell IC50 BMP6); 96 nM and 70 nM on ALK2 [2]; 230 nM in the assay with BMP4; 14 nM against ALK2 [3].

The values are drawn from patent US10513521B2, “Compositions and methods for inhibiting BMP” (The Brigham and Women's Hospital, Inc., priority 2014, dated 2019).
